# Source: ChEMBL document CHEMBL1141638, “Influence of sulfur oxidation state and steric bulk upon trifluoromethyl ketone (TFK) binding kinetics to carboxylesterases and fatty acid amide hydrolase (FAAH)” (Bioorg Med Chem, 2008)
# Assays:
# [1] = target: T1, Fatty-acid amide hydrolase 1 (Homo sapiens, UniProt O00519); assay: Inhibition of human recombinant FAAH after 5 mins
# T1 sequence (O00519 whole entry): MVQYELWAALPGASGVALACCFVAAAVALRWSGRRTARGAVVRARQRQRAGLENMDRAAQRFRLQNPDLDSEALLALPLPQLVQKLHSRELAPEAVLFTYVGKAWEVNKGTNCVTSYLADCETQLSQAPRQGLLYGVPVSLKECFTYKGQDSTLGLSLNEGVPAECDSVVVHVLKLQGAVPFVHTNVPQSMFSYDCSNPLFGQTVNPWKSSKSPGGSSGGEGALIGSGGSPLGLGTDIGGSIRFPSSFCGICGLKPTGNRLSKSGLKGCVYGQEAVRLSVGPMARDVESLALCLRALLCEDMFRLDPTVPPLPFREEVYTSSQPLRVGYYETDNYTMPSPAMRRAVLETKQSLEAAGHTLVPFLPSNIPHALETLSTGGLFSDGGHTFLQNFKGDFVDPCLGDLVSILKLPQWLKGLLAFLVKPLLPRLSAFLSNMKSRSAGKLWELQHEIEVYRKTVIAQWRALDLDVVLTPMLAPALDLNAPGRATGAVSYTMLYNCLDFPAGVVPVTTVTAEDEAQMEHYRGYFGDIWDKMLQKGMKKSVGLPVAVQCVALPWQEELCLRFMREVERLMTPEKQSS
# [2] = target: T2, Liver carboxylesterase (Sus scrofa, UniProt Q29550); assay: Inhibition of pig liver carboxylesterase after 15 mins
# T2 sequence (Q29550 whole entry): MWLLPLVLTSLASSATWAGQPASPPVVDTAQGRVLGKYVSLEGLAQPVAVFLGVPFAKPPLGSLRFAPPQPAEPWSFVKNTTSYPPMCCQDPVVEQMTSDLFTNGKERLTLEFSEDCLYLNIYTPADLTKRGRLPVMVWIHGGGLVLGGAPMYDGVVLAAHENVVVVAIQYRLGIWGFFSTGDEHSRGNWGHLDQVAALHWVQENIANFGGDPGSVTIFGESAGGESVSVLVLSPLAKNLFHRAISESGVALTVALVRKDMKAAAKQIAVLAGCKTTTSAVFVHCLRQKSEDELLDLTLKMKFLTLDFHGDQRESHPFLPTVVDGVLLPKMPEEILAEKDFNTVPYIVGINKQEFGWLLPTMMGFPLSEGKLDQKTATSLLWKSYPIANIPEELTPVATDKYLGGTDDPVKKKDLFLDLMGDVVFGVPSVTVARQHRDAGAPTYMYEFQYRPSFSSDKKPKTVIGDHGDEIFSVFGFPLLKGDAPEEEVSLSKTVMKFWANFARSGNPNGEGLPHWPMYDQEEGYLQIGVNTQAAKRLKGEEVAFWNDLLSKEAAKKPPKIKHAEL
# [3] = target: T2, Liver carboxylesterase; assay: Inhibition of pig liver carboxylesterase after 5 mins
# [4] = target: T1, Fatty-acid amide hydrolase 1; assay: Inhibition of human recombinant FAAH after 15 mins
# [5] = Inhibition of rabbit liver carboxylesterase after 5 mins; design: species or system Oryctolagus cuniculus
# [6] = Inhibition of rabbit liver carboxylesterase after 15 mins; design: species or system Oryctolagus cuniculus
# [7] = target: T3, Juvenile hormone esterase (Manduca sexta, UniProt Q9GPG0); assay: Inhibition of Manduca sexta juvenile hormone esterase
# T3 sequence (Q9GPG0 whole entry): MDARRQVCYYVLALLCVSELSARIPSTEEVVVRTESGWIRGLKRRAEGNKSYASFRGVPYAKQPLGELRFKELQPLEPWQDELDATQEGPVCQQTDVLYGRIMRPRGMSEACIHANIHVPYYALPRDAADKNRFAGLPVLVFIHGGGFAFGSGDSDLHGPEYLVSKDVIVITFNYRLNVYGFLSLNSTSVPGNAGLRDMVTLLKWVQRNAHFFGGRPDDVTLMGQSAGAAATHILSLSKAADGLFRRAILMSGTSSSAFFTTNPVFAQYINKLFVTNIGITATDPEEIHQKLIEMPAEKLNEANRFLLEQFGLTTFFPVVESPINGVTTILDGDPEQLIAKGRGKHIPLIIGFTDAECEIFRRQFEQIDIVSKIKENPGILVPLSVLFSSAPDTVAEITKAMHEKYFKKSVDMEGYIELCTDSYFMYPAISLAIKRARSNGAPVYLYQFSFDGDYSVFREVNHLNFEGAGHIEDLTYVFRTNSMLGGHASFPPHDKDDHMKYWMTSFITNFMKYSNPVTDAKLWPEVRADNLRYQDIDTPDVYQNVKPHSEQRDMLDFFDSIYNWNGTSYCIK
# [8] = Inhibition of Manduca sexta juvenile hormone esterase […] mutant
# [9] = target: T4, Liver carboxylesterase 1 (Homo sapiens, UniProt P23141); assay: Inhibition of human recombinant carboxylesterase 1 after 5 mins
# T4 sequence (P23141 whole entry): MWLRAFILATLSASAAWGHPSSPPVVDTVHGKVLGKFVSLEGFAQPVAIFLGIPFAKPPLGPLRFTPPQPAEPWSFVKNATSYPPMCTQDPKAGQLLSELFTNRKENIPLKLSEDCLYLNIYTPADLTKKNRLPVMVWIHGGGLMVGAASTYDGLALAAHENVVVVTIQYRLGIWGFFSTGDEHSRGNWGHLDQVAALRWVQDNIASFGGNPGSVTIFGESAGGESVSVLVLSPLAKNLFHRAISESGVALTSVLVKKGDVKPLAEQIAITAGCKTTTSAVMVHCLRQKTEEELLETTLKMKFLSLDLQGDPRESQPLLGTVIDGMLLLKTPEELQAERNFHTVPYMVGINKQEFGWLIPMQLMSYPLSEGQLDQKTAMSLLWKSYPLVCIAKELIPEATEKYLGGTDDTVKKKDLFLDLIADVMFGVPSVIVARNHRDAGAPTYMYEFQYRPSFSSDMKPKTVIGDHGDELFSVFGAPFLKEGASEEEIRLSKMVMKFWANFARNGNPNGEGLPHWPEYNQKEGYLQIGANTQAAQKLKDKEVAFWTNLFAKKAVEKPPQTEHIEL
# [10] = target: T4, Liver carboxylesterase 1; assay: Inhibition of human recombinant carboxylesterase 1 after 15 mins
SMILES,IC50 [1] [µM],IC50 [2] [µM],IC50 [3] [µM],IC50 [4] [µM],IC50 [5] [µM],IC50 [6] [µM],IC50 [9] [µM],IC50 [10] [µM],IC50 [7] [µM],IC50 [8] [µM]
CCCC[S+]([O-])CC(=O)C(F)(F)F (stereo unspecified),> 40,0.27,0.97,> 40,,,,,,
CCCCCCCCCCSCC(=O)C(F)(F)F,0.12,0.0013,0.0022,0.17,,,,,,
CCCCCCCCCCCCS(=O)(=O)CC(=O)C(F)(F)F,0.25,0.046,0.037,0.28,,,,,,
CCCCCCSCC(=O)C(F)(F)F,1.95,0.0018,0.0075,2.5,,,,,,
O=C(C(=O)c1ccccc1)c1ccccc1 [BENZIL],> 40,0.83,0.37,> 40,0.019,0.029,,,,
CCCCSCC(=O)C(F)(F)F,> 40,0.0045,0.02,> 40,,,,,,
CCCCCCCCSCC(=O)C(F)(F)F,0.23,0.0024,0.0056,0.3,0.0067,0.0019,0.024,0.013,0.022,0.33
CCCCCCCCCCCCSCC(=O)C(F)(F)F,0.084,0.0053,0.012,0.089,,,,,,
CCCCCCCCS(=O)(=O)CC(=O)C(F)(F)F,14.8,0.46,0.83,22.5,0.055,0.035,0.018,0.0054,,
CCCCCCS(=O)(=O)CC(=O)C(F)(F)F,> 40,0.1,0.47,> 40,,,,,,
CCCCCCCCCCS(=O)(=O)CC(=O)C(F)(F)F,2.2,0.028,0.063,3,,,,,,

# The next lines start with results.
IC50 [1] [µM],IC50 [2] [µM],IC50 [3] [µM],IC50 [4] [µM],IC50 [5] [µM],IC50 [6] [µM],IC50 [9] [µM],IC50 [10] [µM],SMILES,IC50 [7] [µM],IC50 [8] [µM]
> 40,0.033,0.28,> 40,,,,,CCCCCC[S+]([O-])CC(=O)C(F)(F)F (stereo unspecified),,
0.44,0.0086,0.012,0.6,,,,,CCCCCCCCCCCC[S+]([O-])CC(=O)C(F)(F)F (stereo unspecified),,
1.25,0.0093,0.025,1.8,0.042,0.014,0.065,0.03,CCCCCCCCCCC(=O)C(F)(F)F,0.53,1.6
0.76,0.0032,0.0055,1.35,,,,,CCCCCCCCCC[S+]([O-])CC(=O)C(F)(F)F (stereo unspecified),,
6.5,0.023,0.2,13.9,0.016,0.005,0.03,0.0055,CCCCCCCC[S+]([O-])CC(=O)C(F)(F)F (stereo unspecified),,
